pEC50, pIC50: −log10 of the molar value. Like-named read-outs stand apart in the source and are kept apart here.
What was measured:
[1] = tested on: human peripheral blood lymphocytes; test: Lipopolysaccharide-stimulated TNFα release from human peripheral blood lymphocytes; assay type: cell-based
Description: The compounds of structural formula (II) also were tested for an ability to reduce TNFα secretion in human peripheral blood lymphocytes. The ability to reduce TNFα secretion is related to the EC50 values (i.e., the effective concentration of the compound capable of inhibiting 50% of the total TNFα).
To assess the ability of a compound to reduce TNFα secretion in human peripheral blood lymphocytes (PBL), the following tests were performed.
Heparinized blood (approximately 30 mL) drawn from human volunteers was mixed 1:1 with Dulbecco's modified phosphate-buffered saline. This mixture was mixed 1:1 with HISTOPAQUE® and centrifuged at 1,500 rpm at room temperature without braking in the swinging bucket of a Beckman model TJ6 centrifuge. Erythrocytes were centrifuged to the bottom of the tubes, and serum remained at the surface of the tubes. A layer containing lymphocytes sedimented between the serum and HISTOPAQUE® layers, and was removed by aspiration to a fresh tube. The cells were quantified and adjusted to 3×10^6 cells/mL and a 100 μL aliquot is placed into the wells of a 96 well plate. Test compounds and RPMI media (Gibco/BRL Life Sciences) are added to each of the wells 15 minutes prior to addition of bacterial LPS ([…]). The mixture was allowed to incubate for 20 hours at 37° C. in a humidified chamber. The cells then were separated by centrifuging at 800 rpm for 5 minutes at room temperature. An aliquot of 180 μL of supernatant was transferred to a new plate for determination of TNFα concentration. TNFα protein in the cell supernatant fluids was measured using a commercially available enzyme-linked immunosorbent assay (ELISA) (CYTOSCREEN® Immunoassay Kit from Biosource International).
The cell-based assay provided the following results for various pyrrolidine compounds of the present invention. The EC50 values (i.e., effective concentration of the compound capable of inhibiting 50% of the total TNFα) illustrate the ability of the present compounds to inhibit LPS-stimulated TNFα release from human PBL.

[2] = tested on: serum TNFα levels in LPS-injected mice; test: Inhibition of serum TNFα levels in LPS-injected mice (Mouse/TNFα ED50); assay type: in vivo; settings: for ED50: Mus musculus
Description: In order to assess the ability of a compound to reduce serum TNFα levels in mammals, the following protocol was employed. […] Accordingly, in vivo efficacy of a PDE4 reducing compound was shown by dosing with compound and measuring reduction of serum TNFα levels in LPS-injected mice. Female C3H mice, 20-25 gm body weight, were fasted overnight and dosed intraperitoneally with test compound in appropriate vehicle 60 minutes before LPS injection. Five μg of LPS was then injected intraperitoneally into the mice. Ninety minutes after LPS injection, mice were bled from the heart. Blood was allowed to clot overnight at 4° C. Samples were centrifuged for 10 minutes in a microcentrifuge and the serum removed and stored at −20° C. until analysis. Serum levels of TNFα were subsequently measured using a commercially available ELISA kit (Genzyme) following the protocol enclosed in the kit. The percent of inhibition of serum TNFα levels caused by the compound was determined relative to serum TNFα levels in control mice receiving vehicle alone. […]

mouse = test: Subjective assessment of mouse immobility (CNS side effects); assay type: in vivo; settings: for CNS Side Effects: subjective assessment of mouse immobility, 60 minutes
ferret = test: Emetic modeling in the ferret following oral and intravenous dosing; assay type: in vivo, Mustela putorius furo
Description: This study was conducted to investigate the emetogenic properties of PDE4 inhibitors in vivo. The ferret previously has been established as a valuable tool for assessing emesis following exposure to test compounds. […] Therefore, lack of and/or decrease in emetic potential of test compounds in ferrets predicts a favorable nonemetic effect in humans. Emesis is a complex physiological response to noxious agents that can be intiated peripherally or centrally.
The test animals were adult, castrated, and descented male ferrets (species=Mustela putorius furo, Strain=Sable) ranging in weight from about 1 to 1.5 kg. The tests were performed in quadruplicate on animals that were naive to PDE4 inhibitors. The PDE4 inhibitors were formulated in 10% Polyoxyl-35 castor oil (CREMOPHOR® EL, available from BASF Corporation, Parsippany, N.J.) in phosphate buffered saline (PBS), and were administered via i.v. injections into an indwelling catheter surgically positioned in the right external jugular vein at a rate of 0.66 mL per kg body weight. PDE4 inhibitors for oral consumption were formulated in 30% CREMOPHOR® EL in PBS, and administered by intubating animals with a 16-gauge feeding needle into the stomach. The animals received the PDE4 inhibitors in a volume of 1.33 mL per kg body weight.
All animals were fasted for 8 to 12 hours prior to administration of PDE4 inhibitors. Following administration of a PDE4 inhibitor, emetic and behavioral responses were quantified for three hours post dosing. The total number of emetic responses and vomiting episodes were quantified during the observation interval. In addition, latency time to first emetic episode, duration of emesis episodes, and gross behavioral changes including ataxia, profuse and viscous salivation, mouth clawing, hyperventilation, backward walking, flattened body posture, hyperactivity, lip licking, and general appearance were recorded.
For comparative purposes, the emetogenic effect of Samples 66 and 69 were tested intravenously at 1.0, 2.5, 5.0, and 10 mg/kg and orally at 2.5, 10, 17, and 25 mg/kg.

recombinant human PDE4 = test: Inhibition of recombinant human PDE4 (cAMP hydrolysis); settings: read-out: PDE4 IC50
Description: The compounds of structural formula (II) were tested for an ability to inhibit PDE4. […] The IC, value for compounds of structural formula (II) were determined using recombinant human PDE4.
Phosphodiesterase activity of the preparations was determined as follows. […] In this assay, PDE activity converts [32P]cAMP or [32P]cGMP to the corresponding [32P]5′-AMP or [32P]5′-GMP in proportion to the amount of PDE activity present. The [32P]5′-AMP or [32P]5′-GMP then was quantitatively converted to free [32P]phosphate and unlabeled adenosine or guanosine by the action of snake venom 5′-nucleotidase. […] The assay was performed at 30° C. in a 100 μL reaction mixture containing (final concentrations) 40 mM Tris HCl (pH 8.0), 1 μM ZnSO4, 5 mM MgCl2, and 0.1 mg/mL bovine serum albumin (BSA). […] PDE enzyme was present in quantities that yield<30% total hydrolysis of substrate (linear assay conditions). The assay was initiated by addition of substrate (1 mM [32P]cAMP or cGMP), and the mixture was incubated for 12 minutes. Seventy-five (75) μg of Crotalus atrox venom then was added, and the incubation was continued for 3 minutes (15 minutes total). The reaction was stopped by addition of 200 μL of activated charcoal (25 mg/mL suspension in 0.1 M NaH2PO4, pH 4). After centrifugation (750×g for 3 minutes) to sediment the charcoal, a sample of the supernatant was taken for radioactivity determination in a scintillation counter and the PDE activity was calculated.

[3] = Mouse locomotor activity assay (decrease in spontaneous mobility); settings: female, Balb/c, in vivo
Description: The purpose of this study was to determine the efficacy of PDE4 inhibitors in vivo in an LPS mouse model together with a determination with respect to central nervous system (CNS) side-effects manifested by a decrease in spontaneous mobility.
The test animals were female Balb/c mice, having an average weight of about 20 g. The PDE4 inhibitors, formulated in 30% Cremophor® EL, were administered via intraperitoneal (i.p.) injections at doses of 0.1, 1.0, 10.0, and 100 mg/kg. Individual dose volumes (about 150 μL) were adjusted based on the body weights measured. One hour later, 5 mg/kg LPS in a final volume of 200 μL was injected via the tail vein to each animal. Ninety minutes following the LPS treatment, the animals were bled and serum samples were collected before being stored at −70° C. until assayed.
Movement of the X-Y plane, or rearing up on the hind legs, was quantified by counting the number of “light-beam” crosses per unit of time. A decrease in the number of activity events is directly proportional to the mobility or immobilization of the animal. The quantitative scoring correlated well with the subjective measurements described above.

human recombinant PDE4B = biological target: T1, human recombinant PDE4B (Homo sapiens, UniProt Q07343); test: Inhibition of human recombinant PDE4B; assay type: biochemical; settings: read-out: PDE4B IC50
T1 construct: made in house; host or cells: Saccharomyces cerevisiae strain YI23 harboring HDUN2.32
T1 sequence (Q07343 whole entry): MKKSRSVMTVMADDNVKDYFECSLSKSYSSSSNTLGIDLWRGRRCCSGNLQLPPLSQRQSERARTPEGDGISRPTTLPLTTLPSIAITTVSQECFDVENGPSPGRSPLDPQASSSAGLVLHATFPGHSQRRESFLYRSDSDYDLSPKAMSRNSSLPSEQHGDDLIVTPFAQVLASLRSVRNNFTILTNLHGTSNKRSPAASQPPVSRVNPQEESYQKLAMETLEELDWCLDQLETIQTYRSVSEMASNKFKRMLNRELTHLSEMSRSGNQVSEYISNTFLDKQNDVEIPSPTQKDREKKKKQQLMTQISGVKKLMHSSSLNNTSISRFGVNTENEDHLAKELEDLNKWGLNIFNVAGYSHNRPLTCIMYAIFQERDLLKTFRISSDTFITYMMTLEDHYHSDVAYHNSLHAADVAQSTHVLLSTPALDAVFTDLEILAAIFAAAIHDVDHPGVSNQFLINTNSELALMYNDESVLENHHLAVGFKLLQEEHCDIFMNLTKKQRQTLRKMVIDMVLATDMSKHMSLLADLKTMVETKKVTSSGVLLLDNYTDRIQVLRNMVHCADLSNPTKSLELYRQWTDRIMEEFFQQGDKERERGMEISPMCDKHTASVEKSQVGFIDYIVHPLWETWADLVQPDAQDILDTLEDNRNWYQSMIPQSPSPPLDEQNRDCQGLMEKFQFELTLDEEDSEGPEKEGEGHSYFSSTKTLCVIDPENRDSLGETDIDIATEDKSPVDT

[4] = Homo sapiens, Lymphocyte, LPS-stimulated TNFα release from human PBL, read-out: PBL/TNFα EC50
[5] = stereoisomer comparison table, read-out: Mouse/TNFα ED50
[6] = ip, read-out: ED50, effective dose that decreases spontaneous mobility 50% of control
[7] = Homo sapiens, Lymphocyte, read-out: Cell based EC50
[8] = read-out: Mouse LPS Challenge ED50
[9] = intraperitoneal, read-out: Mouse Inhibition of Spontaneous Mobility ED50
[10] = LPS-stimulated TNFα release from human PBL, read-out: PBL/TNFα EC50

## COC(=O)N1C[C@H](c2ccc(OC)c(OC3CCCC3)c2)[C@@](C)([C@H](C)O)C1 [(A)]
[1]; [4]
  pEC50: 7.24
[2]; [5]
  ED50: 7 mg/kg
mouse; i.p. 1, 10 and 100 mg/kg, 60 minutes time frame
  mouse mobility assessment (footnote statement): mice were affected at all doses
mouse; mouse, i.p., highest dose (100 mg/kg)
  outcome at the highest dose: mice became moribund and died within 10 minutes of treatment
mouse; i.p. 1, 10 and 100 mg/kg
  CNS Side Effects: Severe
ferret; intravenous 1.0 mg/kg
  Number of Emetic Events: Retches: 0
  Number of Emetic Events: Total: 0
  Number of Emetic Events: Vomits: 0
  Responders: 0/4
ferret; intravenous 2.5 mg/kg
  Number of Emetic Events: Retches: 3
  Number of Emetic Events: Total: 3
  Number of Emetic Events: Vomits: 0
  Responders: 1/4
ferret; intravenous 5.0 mg/kg
  Number of Emetic Events: Retches: 300
  Number of Emetic Events: Total: 300
  Number of Emetic Events: Vomits: 0
  Responders: 2/2
ferret; intravenous 5 mg/kg body weight
  outcome after intravenous dosing: one of the tested animals died almost immediately after dosing
ferret; oral 2.5 mg/kg
  Number of Emetic Events: Retches: 0
  Number of Emetic Events: Total: 0
  Number of Emetic Events: Vomits: 0
  Responders: 0/4
ferret; oral 10.0 mg/kg
  Number of Emetic Events: Retches: 27
  Number of Emetic Events: Total: 32
  Number of Emetic Events: Vomits: 5
  Responders: 3/4
ferret; oral 17.0 mg/kg
  Number of Emetic Events: Retches: 51
  Number of Emetic Events: Total: 58
  Number of Emetic Events: Vomits: 7
  Responders: 3/4
ferret; oral 25.0 mg/kg
  Number of Emetic Events: Retches: 88
  Number of Emetic Events: Total: 114
  Number of Emetic Events: Vomits: 26
  Responders: 4/4
ferret; oral or intravenous
  emetic response, comparison of compounds: much stronger emetic response than compound (C)
Recombinant human PDE4; human recombinant PDE4
  pIC50: 7.88
Recombinant human PDE4; stereoisomer comparison table
  pIC50: 7.88

## COC(=O)N1CC(c2ccc(OC)c(OC3CCCC3)c2)[C@@](C)([C@@H](C)O)C1 (some centres unmarked) [(B)]
[2]; [5]
  ED50: 12 mg/kg
mouse; i.p. 1, 10 and 100 mg/kg
  CNS Side Effects: No effect
Recombinant human PDE4; stereoisomer comparison table
  pIC50: 7.21

## COC(=O)N1CC(c2ccc(OC)c(OC3CCCC3)c2)[C@](C)([C@H](C)O)C1 (some centres unmarked) [(D)]
mouse; i.p. 1, 10 and 100 mg/kg
  CNS Side Effects: No effect
Recombinant human PDE4; stereoisomer comparison table
  pIC50: 6.29

## COc1ccc([C@@H]2CN(c3ccccn3)C[C@@]2(C)[C@@H](C)O)cc1OC1Cc2ccccc2C1 [Example 31, (1R)-1-[(3S,4S)-4-(3-Indan-2-yloxy-4-methoxyphenyl)-3-methyl-1-(2-pyridyl)pyrrolidin-3-yl]ethan-1-ol]
[1]; [4]
  pEC50: 7.46
[2]; mouse, i.p., LPS challenge, read-out: Mouse/TNFα ED50
  ED50: 3 mg/kg
[3]; [6]
  ED50: 83 mg/kg

## COc1ccc([C@@H]2CN(C(=O)[C@H](C)O)C[C@@]2(C)[C@@H](C)O)cc1OC1CCCC1 [Example 67, 1-[3-((1R)-1-Hydroxyethyl)(3S,4S)-4-(3-cyclopentyloxy-4-methoxyphenyl)-3-methylpyrrolidinyl](2S)-2-hydroxypropan-1-one]
[1]; [4]
  pEC50: 6.22
[3]; [6]
  ED50: > 50 mg/kg

## COc1ccc([C@@H]2CN(C(=O)[C@H](OC(C)=O)C3CCCCC3)C[C@@]2(C)[C@@H](C)O)cc1OC1CCCC1 [Example 90, 1-[3-((1R)-1-Hydroxyethyl)(3S,4S)-4-(3-cyclopentyloxy-4-methoxyphenyl)-3-methylpyrrolidinyl](2R)-2-cyclohexyl-2-acetoxyethan-1-one]
[1]; [4]
  pEC50: 7.21

## COc1ccc([C@@H]2CN(C(=O)[C@H](O)C3CCCCC3)C[C@@]2(C)[C@@H](C)O)cc1OC1CCCC1 [Example 91, (2R)-1-[3-((1R)-1-Hydroxyethyl)(3S,4S)-4-(3-cyclopentyloxy-4-methoxyphenyl)-3-methylpyrrolidinyl]-2-cyclohexyl-2-hydroxyethan-1-one]
[1]; [4]
  pEC50: 7.36

## CCCC[C@H](N)C(=O)N1C[C@@H](c2ccc(OC)c(OC3CCCC3)c2)[C@](C)([C@@H](C)O)C1 [Example 93, 1-[3-((1R)-1-Hydroxyethyl)(3S,4S)-4-(3-cyclopentyloxy-4-methoxyphenyl)-3-methylpyrrolidinyl](2S)-2-aminohexan-1-one]
[1]; [4]
  pEC50: 8.11

## CCCC(O)C(=O)N1C[C@@H](c2ccc(OC)c(OCC3CC3)c2)[C@](C)([C@@H](C)O)C1 (stereo partly drawn) [Example 101, 1-{(3S,4S)-3-((1R)-1-Hydroxyethyl)-4-[3-(cyclopropylmethoxy)-4-methoxyphenyl]-3-methylpyrrolidinyl)-2-hydroxypentan-1-one]
Human recombinant PDE4B
  pIC50: 7.96
[1]; [7]
  pEC50: 7.52
[2]; [8]
  ED50: 3 mg/kg
[3]; [9]
  ED50: 100 mg/kg

## COc1ccc([C@@H]2CN(C(=O)[C@H](N)CO)C[C@@]2(C)[C@@H](C)O)cc1OCC1CC1.Cl [Example 109, hydrochloride]
Human recombinant PDE4B
  pIC50: 7.70
[1]; [7]
  pEC50: 7.52

## COc1ccc([C@@H]2CN(C(=O)[C@H](N)CO)C[C@@]2(C)[C@@H](C)O)cc1OCC1CC1.Cl [Example 109]
[2]; [8]
  ED50: 5 mg/kg
[3]; [9]
  ED50: 100 mg/kg

## COC(=O)N1C[C@@H](c2ccc(OC)c(OC3Cc4ccccc4C3)c2)[C@](C)(C(C)O)C1 (some centres unmarked) [Sample No. 61]
[1]; [10]
  pEC50: 7.24
[2]; stereoisomer comparison table
  Mouse/TNFα ED50: 0.2 mg/kg
mouse; i.p. 1, 10 and 100 mg/kg
  CNS Side Effects: Little to no effect (at 50 mg/kg)
Recombinant human PDE4; human recombinant PDE4
  pIC50: 7.74
Recombinant human PDE4; stereoisomer comparison table
  pIC50: 7.74

## COC(=O)N1C[C@@H](c2ccc(OC)c(OC3Cc4ccccc4C3)c2)[C@](C)(C(C)O)C1 (some centres unmarked) [Sample No. 62]
[1]; [10]
  pEC50: 7.99
[2]; stereoisomer comparison table
  Mouse/TNFα ED50: 0.08 mg/kg
mouse; i.p. 1, 10 and 100 mg/kg
  CNS Side Effects: Little to no effect (at 50 mg/kg)
Recombinant human PDE4; human recombinant PDE4
  pIC50: 8.17
Recombinant human PDE4; stereoisomer comparison table
  pIC50: 8.17

— patent US20040023945A1, “CYCLIC AMP-SPECIFIC PHOSPHODIESTERASE INHIBITORS” (ICOS Corporation, priority 1999, published 2004)
